Source: patent US20250230193A1, “CYCLIC COMPOUND HAVING SELECTIVE KRAS INHIBITORY EFFECT ON HRAS AND NRAS” (CHUGAI SEIYAKU KABUSHIKI KAISHA, priority 2022, published 2025)

Experiments:
[1] = molecular target: GDP-bound NRAS wild-type protein (Homo sapiens, UniProt P01111); assay: Binding to NRAS by surface plasmon resonance (SPR), Single Cycle Kinetics; settings: for NRAS/KRAS (ratio of KD value with respect to GDP-bound NRAS wild-type protein to KD value with respect to KRAS): class symbols
[2] = molecular target: GDP-bound HRAS wild-type protein (Homo sapiens, UniProt P01112); assay: Binding to HRAS by surface plasmon resonance (SPR), Single Cycle Kinetics; settings: for HRAS/KRAS (ratio of KD value with respect to GDP-bound HRAS wild-type protein to KD value with respect to KRAS): class symbols
[3] = KD ratio, GDP-bound NRAS wild-type vs GDP-bound KRAS wild-type, SPR
[4] = KD ratio, GDP-bound HRAS wild-type vs GDP-bound KRAS wild-type, SPR

Chain of GDP-bound HRAS wild-type protein (P01112 whole entry): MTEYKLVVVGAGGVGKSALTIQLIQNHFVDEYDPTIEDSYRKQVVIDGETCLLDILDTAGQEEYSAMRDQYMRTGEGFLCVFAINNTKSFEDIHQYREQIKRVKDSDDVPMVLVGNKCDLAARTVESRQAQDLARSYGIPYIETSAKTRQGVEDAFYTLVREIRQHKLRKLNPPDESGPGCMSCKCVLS
Chain of GDP-bound NRAS wild-type protein (P01111 whole entry): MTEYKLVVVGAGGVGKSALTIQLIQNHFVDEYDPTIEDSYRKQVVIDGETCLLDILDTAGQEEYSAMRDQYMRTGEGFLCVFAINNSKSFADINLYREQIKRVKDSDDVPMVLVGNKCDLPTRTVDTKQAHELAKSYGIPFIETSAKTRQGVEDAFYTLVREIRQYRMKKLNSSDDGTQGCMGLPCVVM

CCC[C@H]1C(=O)N[C@@H]([C@@H](C)CC)C(=O)N(C)CC(=O)N(C)[C@H]2C/C=C\CCN(C2=O)[C@@H](Cc2ccc(C)cc2)C(=O)N(C)CC(=O)N[C@@H](CCc2cc(F)c(C(F)(F)F)c(F)c2)C(=O)N2C[C@H](OCC)C[C@H]2C(=O)NC2(CC(C)(C)C2)C(=O)N(C)[C@@H](C(CC)CC)C(=O)N(C)[C@H](C(=O)N(C)C)CC(=O)N1C [PP2064]
NRAS/KRAS (ratio of KD value with respect to NRAS to KD value with respect to KRAS) ([1]; SPR, GDP-bound NRAS wild-type vs GDP-bound KRAS wild-type): A (a compound having 10 or more and less than 20 is denoted as A) | HRAS/KRAS (ratio of KD value with respect to HRAS to KD value with respect to KRAS) ([2]; SPR, GDP-bound HRAS wild-type vs GDP-bound KRAS wild-type): A (a compound having 10 or more and less than 20 is denoted as A)

CCO[C@@H]1C[C@H]2C(=O)N(C)C3(CCC3)C(=O)N(C)[C@@H](C3CCCC3)C(=O)N(C)[C@H](C(=O)N(C)C)CC(=O)N(C)[C@@H](C3CC3)C(=O)N[C@@H]([C@@H](C)CC)C(=O)N(C)CC(=O)N(C)[C@H]3C/C=C\CCN(C3=O)[C@@H](Cc3ccc(C)cc3)C(=O)N(C)CC(=O)N[C@@H](CCc3cc(F)c(C(F)(F)F)c(F)c3)C(=O)N2C1 [PP1783]
NRAS/KRAS (ratio of KD value for NRAS to KD value for KRAS) [1, 3]: A (a compound having 10 or more and less than 20 is denoted as A) | HRAS/KRAS (ratio of KD value for HRAS to KD value for KRAS) [2, 4]: B (a compound having 3 or more and less than 10 is denoted as B)

CCO[C@@H]1C[C@H]2C(=O)NC3(CCC3)C(=O)N(C)[C@@H](C3CCCC3)C(=O)N(C)[C@H](C(=O)N(C)C)CC(=O)N(C)[C@@H](Cc3cccc(F)c3)C(=O)N[C@@H]([C@@H](C)CC)C(=O)N(C)CC(=O)N(C)[C@H]3CCCCCN(C3=O)[C@@H](Cc3ccc(C(F)(F)F)cc3)C(=O)N(C)CC(=O)N[C@@H](CCc3cc(F)c(C(F)(F)F)c(F)c3)C(=O)N2C1 [PP0935]
NRAS/KRAS (ratio of KD value with respect to NRAS to KD value with respect to KRAS) [1, 3]: B (a compound having 3 or more and less than 10 is denoted as B) | HRAS/KRAS (ratio of KD value with respect to HRAS to KD value with respect to KRAS) [2, 4]: B (a compound having 3 or more and less than 10 is denoted as B)

CC[C@H](C)[C@@H]1NC(=O)[C@H](COC)N(C)C(=O)C[C@@H](C(=O)N2CCOCC2)N(C)C(=O)[C@H](C2CCCC2)N(C)C(=O)C2(CCC2)NC(=O)[C@@H]2CC(F)(F)CN2C(=O)[C@H](CCc2cc(F)c(C(F)(F)F)c(F)c2)NC(=O)CN(C)C(=O)[C@H](Cc2ccc(C(F)(F)F)cc2)N2CCCCC[C@@H](C2=O)N(C)C(=O)CNC1=O [PP0861]
NRAS/KRAS (ratio of KD value with respect to NRAS to KD value with respect to KRAS) [1, 3]: B (a compound having 3 or more and less than 10 is denoted as B) | HRAS/KRAS (ratio of KD value with respect to HRAS to KD value with respect to KRAS) [2, 4]: B (a compound having 3 or more and less than 10 is denoted as B)

CCO[C@@H]1C[C@H]2C(=O)NC3(CC(C)(C)C3)C(=O)N(C)[C@@H](C3CCCC3)C(=O)N(C)[C@H](C(=O)N(C)C)CC(=O)N(C)[C@@H](CC(F)(F)F)C(=O)N[C@@H]([C@@H](C)CC)C(=O)N(C)CC(=O)N(C)[C@H]3C/C=C\CCN(C3=O)[C@@H](Cc3ccc(C(F)(F)F)cc3)C(=O)N(C)CC(=O)N[C@@H](CCc3ccc(Cl)c(Cl)c3)C(=O)N2C1 [PP2832]
NRAS/KRAS (ratio of KD value with respect to GDP-bound NRAS wild-type protein to KD value with respect to KRAS) [1]: A (a compound having 10 or more and less than 20 is denoted as A) | HRAS/KRAS (ratio of KD value with respect to GDP-bound HRAS wild-type protein to KD value with respect to KRAS) [2]: A (a compound having 10 or more and less than 20 is denoted as A)

CCC[C@H]1C(=O)N[C@@H]([C@@H](C)CC)C(=O)N(C2CC2)CC(=O)N(C)[C@H]2C/C=C\CCN(C2=O)[C@@H](Cc2ccc(C)cc2)C(=O)N(C)CC(=O)N[C@@H](CCc2ccc(C(F)(F)F)c(CC)c2)C(=O)N2C[C@H](OCC)C[C@H]2C(=O)NC2(CC(C)(C)C2)C(=O)N(C)[C@@H](C2CCCC2)C(=O)N(C)[C@H](C(=O)N(C)C)CC(=O)N1C [PP2870]
NRAS/KRAS (ratio of KD value with respect to GDP-bound NRAS wild-type protein to KD value with respect to KRAS) [1]: A (a compound having 10 or more and less than 20 is denoted as A) | HRAS/KRAS (ratio of KD value with respect to GDP-bound HRAS wild-type protein to KD value with respect to KRAS) [2]: A (a compound having 10 or more and less than 20 is denoted as A)

CCO[C@@H]1C[C@H]2C(=O)NC3(CCCC3)C(=O)N(C)[C@@H](C3CCCC3)C(=O)N(C)[C@H](C(=O)N(C)CC)CC(=O)N(C)[C@@H](CC(C)C)C(=O)N[C@@H]([C@@H](C)CC)C(=O)N(C)CC(=O)N(C)[C@H]3C/C=C\CCN(C3=O)[C@@H](Cc3ccc(C(F)(F)F)cc3)C(=O)N(C)CC(=O)N[C@@H](CCc3cc(F)c(C(F)(F)F)c(F)c3)C(=O)N2C1 [PP1574, (2S,8S,12R,14S,20S,23S,27S,30S,36S,38Z)-20-cyclopentyl-8-[2-[3,5-difluoro-4-(trifluoromethyl)phenyl]ethyl]-12-ethoxy-N-ethyl-27-isobutyl-N,4,19,22,26,32,35-heptamethyl-30-[(1S)-1-methylpropyl]-3,6,9,15,18,21,25,28,31,34,42-undecaoxo-2-[[4-(trifluoromethyl)phenyl]methyl]spiro[1,4,7,10,16,19,22,26,29,32,35-undecazatricyclo[34.5.1.0^10,14]dotetracont-38-ene-17,1′-cyclopentane]-23-carboxamide]
NRAS/KRAS (ratio of KD value for GDP-bound NRAS wild-type protein to KD value for KRAS) ([1]; SPR, KD ratio class): A (a compound having 10 or more and less than 20 is denoted as A) | HRAS/KRAS (ratio of KD value for GDP-bound HRAS wild-type protein to KD value for KRAS) ([2]; SPR, KD ratio class): A (a compound having 10 or more and less than 20 is denoted as A)
